Patent US12618846B2, “Method and device for imaging fluorescent proteins in near- and short-wave infrared” (HELMHOLTZ ZENTRUM MÜNCHEN—DEUTSCHES FORSCHUNGSZENTRUM FÜR …, priority 2019, dated 2026)

Legend:
[1] = Absorptive and emissive properties of flavylium heptamethine dyes in dichloromethane; format: physicochemical
From the text: As the highest energy absorber of the series, the 7-methoxy substituted dye 10 is ˜44 nm blue shifted from Flav7, with absorption at 984 nm, close to the 980 nm laser line, and emission at 1008 nm. […] The diphenylamino substituted 7 is ˜23 nm red-shifted compared to Flav7, while julolidine derivative 3 is red-shifted by ˜35 nm with absorption at 1061 nm and emission at 1088 nm. Due to its absorption maximum and high brightness (εmax), 3 was a promising candidate for SWIR imaging with 1064 nm excitation and was named Julo7. […] This increased understanding of the relationship between structural and absorption/emission wavelengths sets-up opportunities for predicting photophysical properties of the scaffold.
The absorption coefficients (ε) of the series vary from ˜110,000 to ˜240,000 M^−1cm^−1. […] The fluorescence quantum yields (φF) (relative measurements to IR-26=0.05%) remain rather constant, in the 0.4 to 0.6% range, despite red- or blue-shifted behavior, providing a platform for intensity-matched probes. […]
For excitation multiplexing, we are most interested in properties of the series of polymethine fluorophores when exited at 980 and 1064 nm. Thus, we calculated brightness (εA) values for each dye using the absorbance coefficient at the respective wavelengths. […]

[2] = stated as known property; cited from earlier work
[3] = Two-color SWIR lymphatic imaging of narcotized mouse; format: in vivo; conditions: intradermally into footpads and base of tail, after 30 min
From the text: The FIGS. 9A, 9B and 9C show merged frames representing the lymphatic system of a narcotized mouse in two-color real-time acquisition. With detector exposure time of 20 ms, a frame rate of 21 fps is achieved with the developed system. […] Then, Julo 7 micelles have been injected intravenously. The lymphatic functional imaging is later enhanced by the assignment of two distinct colors.
Light Source (785 nm laser & 1064 nm laser sequentially triggered, pulse length=21 ms)→Collimator→Mirror→1100 nm Short-pass Filter→Engineered Diffuser→Sample. The arrows represent the light path. Accordingly, the light path has been set up as follows: from Light Source (785 nm laser & 1064 nm laser sequentially triggered, pulse length=21 ms) to Collimator to Mirror to 1100 nm Short-pass Filter to Engineered Diffuser to Sample.
Sample→3×f=500 mm C-Coated lenses→Silver Mirror→1000 nm Long-pass Filter→2×f=200 mm C-coated lenses→InGaAs Detector. The arrows represent the light path. Accordingly, the light path has been set up as follows: from Sample to 3×f=500 mm C-Coated lenses to Silver Mirror to 1000 nm Long-pass Filter to 2×f=200 mm C-coated lenses to InGaAs Detector.
Sample: ICG (aqueous, 13 nmol intradermally [footpads and base of tail]) and Julo7 (micelles, 70 nmol intravenously).

[4] = Three-color excitation-multiplexed SWIR imaging of awake mouse; format: in vivo; conditions: 80 minutes after i.p. 10 micelles and i.v. 3 micelles and ICG; top-view
From the text: To obtain real-time images in three colors, heptamethine 10 was encapsulated in PEG-coated micelles to impart water solubility. In vivo, we introduced 10 micelles by intraperitoneal injection, and 3 micelles followed by ICG by intravenous injection. […] After establishing both the technology and the molecular tools for multiplexed real-time observation of function in mice, the next goal was to enhance existing SWIR imaging applications.
Physiological properties such as heart-rate, respiratory rate, thermoregulation, metabolism, and the function of the central nervous system, are highly impacted by anesthesia. […] Due to frame rates which are faster than macroscopic movements in animals, the heart rate and respiratory rate in awake animals can be quantified. […] The method allows physiology to be monitored with minimal perturbation of the animal's usual environment. […] The real-time collection can be visualized by observing close time-points in which a continuous movement is monitored without visual aberrations (FIG. 16A). In addition to assessing natural physiology, these tools foreshadow more complex experiments in which the location of multiple probes could be monitored over long periods of time, non-invasively and without the need for anesthesia.

[5] = reference value used for relative measurements; cited from earlier work

CN(C)c1ccc2c(c1)OC(c1ccccc1)=C/C2=C\C=C1/CCCC(/C=C/c2cc(-c3ccccc3)[o+]c3cc(N(C)C)ccc23)=C1Cl [dye 1]
λmax,abs (absorption) [1]: 1027 nm | λmax,em (emission) [1]: 1053 nm

CC1(C)C(/C=C/C=C/C=C/C=C2\N(CCCCS(=O)(=O)[O-])c3ccc4ccccc4c3C2(C)C)=[N+](CCCCS(=O)(=O)[O-])c2ccc3ccccc3c21.[Na+] [ICG, indocyanine green]
clearance route [2]: clears efficiently and exclusively from the liver | conduction through the lymphatic vessels [3]: efficiently conducted through the lymphatic vessels | location of probe in awake mouse [4]: exclusively in the liver

ClC1=C(/C=C/c2cc(-c3ccccc3)[s+]c3ccccc23)CCC/C1=C\C=C1/C=C(c2ccccc2)Sc2ccccc21.[O-][Cl+3]([O-])([O-])[O-] [IR-26]
fluorescence quantum yield of reference standard [5]: 0.05%
